Read-outs that look alike come from different tables or passages of the source.
Columns and labels:
[1] = Stability study: degradation products by HPLC-UV; type: physicochemical; settings: pre-stressed sample, elevated temperature and light
Procedure: • nicotine release at 30 min • degradation product Pouch samples from Example 1 were stored in a plastic container with closed (but not hermetically sealed) lid at 21-22° C./60-62% RH for up to 3 months. The release of nicotine at 30 min for the pouch product stored for 1 month at 21-22° C./60-62% RH was analyzed, using the UV spectrophotometrical method described above.
Pouch samples from Example 1 were also analyzed for the detection of potential degradation products, using HPLC-UV method (Agilent 1200 series HPLC). Samples with the same excipients but without the nicotine API and samples with the nicotine API was used to identify reference (blank) peaks. A pre-stressed sample of nicotine was prepared (using elevated temperature and light) to reveal any peaks originating from heat- and light-induced degradation of nicotine. […] The obtained peaks in the chromatogram corresponds to nicotine or solvent injection peak. The chromatogram from the HPLC-UV analysis of pre-stressed sample of nicotine (FIG. 5A), which was compared to the chromatogram of nicotine bitartrate dihydrate spiked into the reference sample without API (FIG. 5B).

[2] = cited from earlier work

Row | Structure (SMILES) | Solubility in water (descriptive) [2] | other results
1 | CN1CCCC1c1cccnc1 (centres unmarked) [nicotine] | – | peaks from potential degradation products (HPLC-UV) [1]: No additional peaks from potential degradation products
2 | OC[C@@H](O)[C@H](O)[C@@H](O)CO [Xylitol] | Very soluble | –
3 | CC1=CC(=O)NS(=O)(=O)O1 [Acesulfame K, Acesulfame potassium] | High solubility: | Solubility in water ([2]; at 20° C.): 270 mg/ml at 20 °C
4 | OC[C@@H](O)[C@@H](O)[C@H](O)[C@H](O)CO [D-Mannitol] | Very soluble | Solubility in water ([2]; at 25° C.): 216 mg/ml at 25 °C
5 | CC(O)CO (centres unmarked) [Propylene glycol] | Soluble | –
6 | CC(C)[C@@H]1CC[C@@H](C)C[C@H]1O [L-Menthol] | Low soluble | –

Source: patent publication US20220354840A1, “NICOTINE POUCH” (Enorama Pharma AB, priority 2019, published 2022)
